In PubChem BioAssay AID1963965 (Molecular Pharmacology Branch, DTP, NCI, 2024):
One block for each compound: values may come before it.

System: 996289-038-R-J1-PDC spheroid viability
Test: Anticancer human tumor 996289-038-R-J1-PDC patient-derived colon adenocarcinoma cell line growth inhibition [PI3K]
Conditions: spheroids with HUVEC and MSC; for IC50: curve of first compound; for viability, T/C: stronger effect = lower value
Summary of the method: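 Multi-cell spheroids combine tumor cells with HUVEC and human MSCs, treated with targeted agents alone or with inavolisib, alpelisib, duvelisib or copanlisib. Concentrations fall in half-log steps from at or near clinical Cmax, or from 10 microM where Cmax is unknown; viability read-out.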
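Further: spheroids exposed to compounds for seven days before viability read.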
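Wherever viability, T/C is given: luminescence used as a proxy for viable cell amount; percent viability relative to DMSO vehicle control as 100%.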

IC50 (second compound 0.0316 µM): 148 nM | IC50 (second compound 0.1 µM): 114 nM | IC50 (second compound 0.316 µM): 59.4 nM | IC50 (second compound 1 µM): 24.8 nM | IC50 (second compound 3.16 µM): 13.5 nM | IC50 (second compound 10 µM): < 9.49 nM
Structure (SMILES): Cn1cnc2c(F)c(Nc3ccc(Br)cc3Cl)c(C(=O)NOCCO)cc21 + Cc1nc(NC(=O)N2CCCC2C(N)=O)sc1-c1ccnc(C(C)(C)C(F)(F)F)c1
viability, T/C (second compound 0.0316 µM, first compound 0.00949 µM): 73% | viability, T/C (second compound 0.0316 µM, first compound 0.03 µM): 64.4% | viability, T/C (second compound 0.0316 µM, first compound 0.0949 µM): 54.4% | viability, T/C (second compound 0.0316 µM, first compound 0.3 µM): 42.5% | viability, T/C (second compound 0.0316 µM, first compound 0.949 µM): 33.8% | viability, T/C (second compound 0.0316 µM, first compound 3 µM): 23.6% | viability, T/C (second compound 0.1 µM, first compound 0.00949 µM): 76.7% | viability, T/C (second compound 0.1 µM, first compound 0.03 µM): 70.4% | viability, T/C (second compound 0.1 µM, first compound 0.0949 µM): 48.6% | viability, T/C (second compound 0.1 µM, first compound 0.3 µM): 38.6% | viability, T/C (second compound 0.1 µM, first compound 0.949 µM): 30.4% | viability, T/C (second compound 0.1 µM, first compound 3 µM): 20.5% | viability, T/C (second compound 0.316 µM, first compound 0.00949 µM): 76.2% | viability, T/C (second compound 0.316 µM, first compound 0.03 µM): 60.6% | viability, T/C (second compound 0.316 µM, first compound 0.0949 µM): 41.9% | viability, T/C (second compound 0.316 µM, first compound 0.3 µM): 32% | viability, T/C (second compound 0.316 µM, first compound 0.949 µM): 26.5% | viability, T/C (second compound 0.316 µM, first compound 3 µM): 20.1% | viability, T/C (second compound 1 µM, first compound 0.00949 µM): 58.2% | viability, T/C (second compound 1 µM, first compound 0.03 µM): 50.5% | viability, T/C (second compound 1 µM, first compound 0.0949 µM): 35.3% | viability, T/C (second compound 1 µM, first compound 0.3 µM): 29.4% | viability, T/C (second compound 1 µM, first compound 0.949 µM): 22.1% | viability, T/C (second compound 1 µM, first compound 3 µM): 14.8% | viability, T/C (second compound 3.16 µM, first compound 0.00949 µM): 55.3% | viability, T/C (second compound 3.16 µM, first compound 0.03 µM): 39.1% | viability, T/C (second compound 3.16 µM, first compound 0.0949 µM): 30.1% | viability, T/C (second compound 3.16 µM, first compound 0.3 µM): 22.2% | viability, T/C (second compound 3.16 µM, first compound 0.949 µM): 16.8% | viability, T/C (second compound 3.16 µM, first compound 3 µM): 8.81% | viability, T/C (second compound 10 µM, first compound 0.00949 µM): 31.3% | viability, T/C (second compound 10 µM, first compound 0.03 µM): 24.8% | viability, T/C (second compound 10 µM, first compound 0.0949 µM): 19.1% | viability, T/C (second compound 10 µM, first compound 0.3 µM): 14% | viability, T/C (second compound 10 µM, first compound 0.949 µM): 9.2% | viability, T/C (second compound 10 µM, first compound 3 µM): 5.22%

IC50 (second compound 0.0316 µM): > 10000 nM | IC50 (second compound 0.1 µM): > 10000 nM | IC50 (second compound 0.316 µM): > 10000 nM | IC50 (second compound 1 µM): 3530 nM | IC50 (second compound 3.16 µM): 3560 nM | IC50 (second compound 10 µM): < 31.6 nM
Structure (SMILES): Cn1nccc1Nc1nccc(-c2ccn(C(CO)c3ccc(Cl)c(F)c3)c(=O)c2)n1 (centres undefined) + Cc1nc(NC(=O)N2CCCC2C(N)=O)sc1-c1ccnc(C(C)(C)C(F)(F)F)c1
viability, T/C (second compound 0.0316 µM, first compound 0.0316 µM): 106% | viability, T/C (second compound 0.0316 µM, first compound 0.1 µM): 114% | viability, T/C (second compound 0.0316 µM, first compound 0.316 µM): 108% | viability, T/C (second compound 0.0316 µM, first compound 1 µM): 85.8% | viability, T/C (second compound 0.0316 µM, first compound 3.16 µM): 97% | viability, T/C (second compound 0.0316 µM, first compound 10 µM): 55.2% | viability, T/C (second compound 0.1 µM, first compound 0.0316 µM): 107% | viability, T/C (second compound 0.1 µM, first compound 0.1 µM): 96.8% | viability, T/C (second compound 0.1 µM, first compound 0.316 µM): 101% | viability, T/C (second compound 0.1 µM, first compound 1 µM): 85.6% | viability, T/C (second compound 0.1 µM, first compound 3.16 µM): 70.2% | viability, T/C (second compound 0.1 µM, first compound 10 µM): 52.1% | viability, T/C (second compound 0.316 µM, first compound 0.0316 µM): 92.5% | viability, T/C (second compound 0.316 µM, first compound 0.1 µM): 84.5% | viability, T/C (second compound 0.316 µM, first compound 0.316 µM): 101% | viability, T/C (second compound 0.316 µM, first compound 1 µM): 72.7% | viability, T/C (second compound 0.316 µM, first compound 3.16 µM): 61.4% | viability, T/C (second compound 0.316 µM, first compound 10 µM): 49.5% | viability, T/C (second compound 1 µM, first compound 0.0316 µM): 76.8% | viability, T/C (second compound 1 µM, first compound 0.1 µM): 90% | viability, T/C (second compound 1 µM, first compound 0.316 µM): 72.5% | viability, T/C (second compound 1 µM, first compound 1 µM): 62% | viability, T/C (second compound 1 µM, first compound 3.16 µM): 54.1% | viability, T/C (second compound 1 µM, first compound 10 µM): 38.8% | viability, T/C (second compound 3.16 µM, first compound 0.0316 µM): 54.8% | viability, T/C (second compound 3.16 µM, first compound 0.1 µM): 57.4% | viability, T/C (second compound 3.16 µM, first compound 0.316 µM): 63% | viability, T/C (second compound 3.16 µM, first compound 1 µM): 54.9% | viability, T/C (second compound 3.16 µM, first compound 3.16 µM): 52.9% | viability, T/C (second compound 3.16 µM, first compound 10 µM): 27.1% | viability, T/C (second compound 10 µM, first compound 0.0316 µM): 44.7% | viability, T/C (second compound 10 µM, first compound 0.1 µM): 40.6% | viability, T/C (second compound 10 µM, first compound 0.316 µM): 57.9% | viability, T/C (second compound 10 µM, first compound 1 µM): 34.7% | viability, T/C (second compound 10 µM, first compound 3.16 µM): 29.4% | viability, T/C (second compound 10 µM, first compound 10 µM): 15.7%
